Assay results reported in patent publication US12280069B2, “Methods of using human milk oligosaccharides for improving airway respiratory health” (priority 2010, dated 2025).

How the values were obtained:
[1] = test system: monocyte-derived cytokines; assay: Monocyte-derived cytokines in peripheral blood mononuclear cells (Example 39); format: cell-based, human
Protocol: (§1) Specifically, either 3′SL or 6′SL is added, at concentrations of 0.1 mg/mL, 0.2 mg/mL, or 0.5 mg/mL to fresh peripheral blood mononuclear cells and incubated at 37° C. in 5% CO2 to pretreat the cells for approximately 24 hours. LNnT is added, at concentrations of 0.1 mg/mL, 0.2 mg/mL, or 1 mg/mL to fresh peripheral blood mononuclear cells and incubated at 37° C. in 5% CO2 to pretreat the cells for approximately 24 hours. Lactose is included as a carbohydrate control. Matched endotoxin unit concentration controls are included to allow differentiation of ingredient effects from inherent low levels of endotoxin. Some variables are then incubated with RSV at a multiplicity of infection (MOI) of 0.1 for approximately 1 hour at 37° C. in 5% in CO2. Uninfected control variables are incubated with medium for approximately 1 hour at 37° C. in 5% CO2. After approximately one hour, fresh medium alone, or fresh medium containing the appropriate concentration of 3′SL, 6′SL, LNnT, lactose, or endotoxin is added to the appropriate tubes and the cells are incubated for 48 hours at 37° C. in 5% CO2. Supernatants are collected at 24 and 48 hours post-infection.
(§2) Cytokines are measured in supernatants for each variable at 24 and 48 hours to assess the effects of HMOs on the early immune response to RSV. Cytokines are measured using custom Bio-Plex Human cytokine kits from Bio-Rad. Results for interferon-inducible protein 10 (IP-10, also known as CXCL 10) are shown in FIGS. 3 and 4 for 3′SL and 6′SL, and in FIGS. 5 and 6 for LNnT. IP-10 is a CXC chemokine that attracts, binds to and activates the CXCR3 receptor on natural killer cells and memory T cells. IP-10 is expressed by monocytes and a number of other cells, and is induced by interferon. A positive correlation exists between RSV clinical disease severity in children (as measured by: length of hospital stay, fever, and number of days supplemental O2 is required) and serum IP-10. Therefore, a decrease in IP-10 signals a decrease in severity of RSV disease experienced.

[2] = test system: interferon-inducible protein 10 (IP-10); assay: IP-10 in RSV-infected peripheral blood mononuclear cells (Example 39); format: cell-based, human; settings: for IP-10 level compared with uninfected controls / IP-10 in virus-infected variables: FIGS. 3-6; for IP-10 in virus-infected variables: both donors, 24 hour pretreatment, 0.1-0.5 mg/mL (LNnT 0.1-1 mg/mL); for reduction of inflammation caused by RSV: pretreatment for 24 hours, measured by decrease in IP-10
Protocol: as §1, §2

interleukin 10 (IL-10) [3] = assay: IL-10 in PBMCs in the presence or absence of RSV (Example 45); format: cell-based, human; settings: in the presence or absence of RSV (MOI 0.1); for IL-10 response, Donor A and Donor E: 0.1-2.0 mg/mL, FIGS. 20A, 20B; for IL-10 response, Donor B and Donor E: FIGS. 19A, 19B
Protocol: Specifically, 3′SL and 6′SL are added individually at concentrations of 0.1 mg/mL, 0.2 mg/mL, or 0.5 mg/mL or in combination (Combo 1=1 part 3′SL to 1 part 6′SL; and Combo 2=1 part 3′SL to 2 parts 6′SL), at total concentrations of 0.2 mg/mL, 0.4 mg/mL, or 1.0 mg/mL to fresh PBMCs and incubated at 37° C. in 5% CO2 to pretreat the cells for approximately 24 hours. In a separate experiment, LNnT and 2′FL are added individually at concentrations of 0.1 mg/mL, 0.2 mg/mL, 1.0 mg/mL or 2.0 mg/mL to fresh PBMCs and incubated at 37° C. in 5% CO2 to pretreat the cells for approximately 24 hours. Lactose is included as a carbohydrate control. Matched endotoxin unit concentration controls are included to allow differentiation of ingredient effects from inherent low levels of endotoxin. After approximately 24 hours, some variables are then incubated with RSV at a multiplicity of infection (MOI) of 0.1 for approximately 1 hour at 37° C. in 5% in CO2. Uninfected control variables are incubated with medium for approximately 1 hour at 37° C. in 5% CO2. After approximately 1 hour, fresh medium alone or containing the appropriate concentrations of LNnT alone, 2′FL alone, 3′SL or 6′SL individually or in combination, lactose alone, or endotoxin alone is added to the appropriate variables, and the PBMCs were incubated for 48 hours at 37° C. in 5% CO2. Supernatants are collected at 24 and 48 hours post-infection. Cytokines are measured in supernatants for each variable at 24 and 48 hours to assess the effects of HMOs on the early immune response to RSV. Cytokines are measured using custom Bio-Plex Human cytokine kits from Bio-Rad.

[4] = test system: H1N1 influenza A virus (IAV); assay: H1N1 influenza A virus replication (IAV M gene copy numbers) in 16HBE cells (Example 43); format: cell-based; settings: 16HBE lung epithelial cells; MOI 0.01; FIG. 16
[5] = test system: respiratory syncytial virus (RSV); assay: RSV replication (RSV NS1 copy numbers) in 16HBE lung epithelial cells (Example 42); format: cell-based; settings: RSV MOI 1, FIGS. 13-15
Protocol: Specifically, on Day −1, 16HBE cell monolayers are seeded in sufficient numbers to reach 95-100% confluence in 24 well places by Day 0. On day 0, either 2′FL (in concentrations of 1 μg/mL, 5 μg/mL, 10 μg/mL, 50 μg/mL, 100 μg/mL, 500 μg/mL, and 1000 μg/mL), LNnT (in concentrations of 10 μg/mL, 100 μg/mL, or 1000 μg/mL), or 3′SL (in concentrations of 5 μg/mL, 10 μg/mL, 50 μg/mL, 100 μg/mL, 500 μg/mL, and 1000 μg/mL) is added and incubated for approximately 24 hours at 37° C. in 5% CO2. On day 1, the cell supernatants are removed and the monolayers are incubated with medium alone or medium plus Respiratory Syncytial Virus (RSV) for approximately 1 hour at 37° C. in 5% CO2 at a multiplicity of infection (MOI) of 1. After approximately 1 hour, fresh medium alone or containing the appropriate concentrations of 2′FL 3′SL, or LNnT is added to the appropriate wells, and the cells are incubated for 48 hours at 37° C. in 5% CO2. On day 3, supernatants and cell lysates are collected separately, aliquotted and stored frozen at −70° C. for later analysis. Cell lysates are analyzed by TaqMan qRTPCR to assess viral replication through measurement of RSV NS1 copy numbers.

interleukin 10 (IL-10) [6] = assay: IL-10 in peripheral blood mononuclear cells with or without RSV (Example 39); format: cell-based, human; settings: in the presence or absence of RSV; FIGS. 7-10
Protocol: as §1, with “After approximately one hour, fresh medium alone, or fresh medium containing the appropriate concentration of 3′SL, 6′SL, LNnT, lactose, or endotoxin is added to the appropriate tubes and the cells are incubated for 48 hours at 37° C. in 5% CO2. Supernatants are collected at 24 and 48 hours post-infection.” left out
Cytokines are measured in supernatants for each variable at 24 and 48 hours to assess the effects of HMOs on the early immune response to RSV. Cytokines are measured using custom Bio-Plex Human cytokine kits from Bio-Rad. […] A positive correlation exists between RSV clinical disease severity in children (as measured by: length of hospital stay, fever, and number of days supplemental O2 is required) and serum IP-10. […]

H1N1 influenza virus [7] = format: cell-based; settings: at a concentration of 1 mg/mL
[8] = test system: H1N1 influenza A virus (IAV); assay: H1N1 influenza A virus replication (IAV M gene copy numbers) in Calu3 cells (Example 43); format: cell-based; settings: Calu3 lung epithelial cells; MOI 0.01; FIG. 17
H1N1 influenza virus [9] = format: cell-based; settings: 10 mg/mL; MDCK cells; FIG. 1
[10] = test system: interferon-inducible protein 10 (IP-10); assay: IP-10 in RSV-infected PBMCs, 6′SL (Example 44); format: cell-based, human; settings: 0.1 mg/mL to 1 mg/mL; RSV MOI 1.0; 4 donors; 48 hours; FIG. 18
Protocol: Specifically, 6′SL was added individually at concentrations of 0.1 mg/mL, 0.2 mg/mL, 0.5 mg/mL or 1.0 mg/mL to fresh peripheral blood mononuclear cells (PCMBs) and incubated at 37° C. in 5% CO2 to pretreat the cells for approximately 24 hours. After approximately 24 hours, some variables are then incubated with RSV at a multiplicity of infection (MOI) of 1.0 for approximately 1 hour at 37° C. in 5% in CO2. Uninfected control variables are incubated with medium for approximately 1 hour at 37° C. in 5% CO2. After approximately 1 hour, fresh medium alone or containing the appropriate concentrations of 6′SL is added to the appropriate variables, and the PBMCs are incubated for 48 hours at 37° C. in 5% CO2. Supernatants are collected at 48 hours post-infection. Cytokines are measured in supernatants for each variable at 48 hours to assess the effects of HMOs on the early immune response to RSV.
Interferon-inducible Protein 10 (IP-10, also known as CXCL10) is a CXC chemokine that attracts, binds to and activates the CXCR3 receptor on Natural Killer Cells and Memory T cells. IP-10 is expressed by monocytes and a number of other cells, and is induced by interferon. A positive correlation exists between RSV clinical disease severity in children (as measured by: length of hospital stay, fever, and number of days supplemental O2 was required) and serum IP-10. […]

[11] = in the presence or absence of the virus

| Compound | production of monocyte-derived cytokines (IL-10, MIP-1β, Interferon-γ, IL-8, IL-1α, IL-1β, IL-1ra) [1, 11] | IP-10 level compared with uninfected controls ([2]; RSV MOI 0.1) | IP-10 in virus-infected variables ([2]; RSV MOI 0.1) | reduction of inflammation caused by RSV [2] | IL-10 response, Donor A and Donor E (interleukin 10 (IL-10) [3]) | concentrations that decrease viral load or inhibit IAV replication (IAV M gene copies) [4] [µg/mL] | concentrations that decrease viral load or inhibit RSV replication (RSV NS1 copies) [5] [µg/mL] | IL-10 concentration (interleukin 10 (IL-10) [6]) | anti-viral activity against H1N1 influenza virus (H1N1 influenza virus [7]) | production of monocyte-derived cytokines (MIP-1β, Interferon-γ, IL-8, IL-1ra) [1, 11] | RSV-induced IP-10, Donor B ([2]; RSV MOI 0.1, Donor B) | RSV-induced IP-10, Donor E ([2]; RSV MOI 0.1, Donor E) | IL-10 response, Donor B and Donor E (interleukin 10 (IL-10) [3]) | concentrations that decrease viral load or inhibit IAV replication (IAV M gene copies) [8] [µg/mL] | inhibition of virus infectivity (H1N1 influenza virus [9]) | production of monocyte-derived cytokines (IL-10, MIP-1β, Interferon-γ, IL-8, IL-1α, IL-1β, IL-1ra) ([1]; in the absence of the virus) | IP-10 in RSV infected PBMCs [10] |
| --- | --- | --- | --- | --- | --- | --- | --- | --- | --- | --- | --- | --- | --- | --- | --- | --- | --- |
| CC(=O)N[C@H]1[C@H](O[C@H]2[C@@H](O)[C@@H](CO)O[C@@H](O[C@H]3[C@H](O)[C@@H](O)C(O)O[C@@H]3CO)[C@@H]2O)O[C@H](CO)[C@@H](O[C@@H]2O[C@H](CO)[C@H](O)[C@H](O)[C@H]2O)[C@@H]1O (mixture of isomers) [LNnT, lacto-N-neotetraose] | immunomodulatory | reduce IP-10 to levels found in uninfected controls | clearly downregulates IP-10 | effective in reducing inflammation caused by RSV | clear dose-dependent increase in IL-10 response | ≥ 1 | ≥ 10 | increases IL-10 concentration in a dose-dependent manner |  |  |  |  |  |  |  |  |  |
| CC(=O)N[C@H]1[C@H]([C@H](O)[C@H](O)CO)O[C@@](O[C@H]2[C@@H](O)[C@@H](CO)O[C@@H](O[C@H]3[C@H](O)[C@@H](O)C(O)O[C@@H]3CO)[C@@H]2O)(C(=O)O)C[C@@H]1O (stereo partly drawn) [3′SL, 3′-sialyllactose] |  |  |  | effective in reducing inflammation caused by RSV |  |  |  |  | inhibited | immunomodulatory | not effective | downregulates RSV-induced IP-10 | do not increase IL-10 |  |  |  |  |
| CC(=O)N[C@H]1[C@H]([C@H](O)[C@H](O)CO)O[C@@](OC[C@H]2O[C@@H](O[C@H]3[C@H](O)[C@@H](O)[C@H](O)O[C@@H]3CO)[C@H](O)[C@@H](O)[C@H]2O)(C(=O)O)C[C@@H]1O [6′SL, 6′-sialyllactose] |  | reduce IP-10 to levels found in uninfected controls | clearly downregulates IP-10 | effective in reducing inflammation caused by RSV |  |  |  |  |  |  |  |  | clear dose-dependent increase in IL-10 response | ≥ 10 | approximately 60% | immunomodulatory | dose-dependent downregulation of IP-10 |
| OC[C@H]1O[C@@H](O[C@H]2[C@H](O)[C@@H](O)C(O)O[C@@H]2CO)[C@H](O)[C@@H](O)[C@H]1O (stereo partly drawn) [lactose, Lactose, reference compound] |  |  |  |  | do not increase IL-10 |  |  |  |  |  |  |  | do not increase IL-10 |  |  |  |  |
